Consider one compound from patent US7148193B2, “Compounds that bind to growth hormone receptor” (Antyra, Inc., priority 1997, dated 2006).

The structures appear in SMILES notation. Substitutions are numbered along the chain they refer to. Where a SMILES comes first, the peptide text is derived from it. Bridges are numbered along the chain shown (N, C = ends).

Assay [1] deals with T1, rGHBP (Rattus norvegicus, UniProt P16310).
T1 construct: 1–48 of GHBP; The 3′ oligo used for this reaction encoded the mutation L43R (CTG→AGA); The second PCR reaction amplified the DNA encoding amino acids 38–260; 6xHis; made in house
T1 sequence (P16310 19-278 isoform P16310-2): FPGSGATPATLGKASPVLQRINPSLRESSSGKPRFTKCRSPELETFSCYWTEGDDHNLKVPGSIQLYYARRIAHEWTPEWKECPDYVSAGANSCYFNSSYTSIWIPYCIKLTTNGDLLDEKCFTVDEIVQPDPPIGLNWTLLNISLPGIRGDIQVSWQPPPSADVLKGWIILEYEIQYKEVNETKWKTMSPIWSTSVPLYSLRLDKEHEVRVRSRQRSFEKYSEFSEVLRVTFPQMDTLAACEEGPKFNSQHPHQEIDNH
Nature of the assay: Time-resolved fluorometric detection (TRFD) of specific bLigand binding to rGHBP and its competition. As to conditions: TRFD. Here is the method: For this invention, saEu forms a ternary complex with bP and rGHBP (i.e., the rGHBP:bP:saEu complex). As described herein, the TRFD assay is performed using biotinylated GH (bGH) as bLigand. Biotinylated H5-mutant peptides bP#447 (SEQ ID NO:11) and bP#418 (SEQ ID NO:12) are also used as bLigand (see below). The TRFD assay described herein faithfully reports the competition of ligand binding to the active site of rGHR. To perform the TRFD assays, soluble rGHBP is attached to the surface of microtiter wells, then incubated with bP. Unbound bP is than washed away and (sa)Eu is added to complex with receptor bound bP. The rGHBP:bP bound (sa)Eu is then converted into its highly fluorescent state and detected by TRFD.
Wells were coated with rGHBP(100 ng/well) overnight as described. ED50 and IC50 were calculated from analysis of specific bLigand binding to rGHBP. Competitors were added 1 hr prior to addition of bLigand as described.
rGHBP (50–200 μg/ml in 50 mM NaHCO3) was coated onto low-fluorescence MaxiSorp (Nunc) plates (100 μl/well) overnight at 4° C. The plates were blocked with PBS containing 2% non-fat milk and 0.05% BSA for 2 hr at room temperature, followed by three PBS washes. For competitions, serial dilutions of unlabelled growth hormone (0.1 nM-100 nM) or MAb 2C3 (0.67–67 nM) were added to the plates (100 μl/well) and incubated at room temperature for 1–2 hr. Biotinylated peptide or biotinylated GH (10× concentrations) were incubated in blocking buffer for 30 min to decrease non-specific binding. Ten microliters of the 10× concentrated material was added to the plates and incubated at room temperature for 1 hr to overnight.
The plates were then washed five times with Tris-buffered saline (pH 7.5) containing 0.1% Tween-20 (TTBS). To each well, 100 μl of europium-labeled streptavidin in DELFIA assay buffer (100 mM Tris-HCl, pH 7.8; 150 mM NaCl; 0.5% BSA; 0.05% bovine Ig; 0.05% NaN3; 0.01% Tween-20) was added and incubated for 1.5 hr at room temperature. The plates were then washed five times with TTBS and tapped dry. Subsequently, 100 μl of DELFIA enhancement solution (100 mM acetone-potassium hydrogen phthalate, pH 3.2; 15 mM 2-naphtyltrifluoroacetate; […] tri(n-octyl)-phosphine oxide; 0.1% Triton X-100) was added to each well, and the plates were shaken for 10 min at room temperature. Fluorescence of each sample well was measured at 615 nm using a DELFIA 1234 fluorometer (EG&G Wallac). General procedure and references as described by Wallac are available in “Lanthanide labeling for time-resolved fluorometry”: Wallac publication 1244–1126-03.

In assay [2] the target is T1, rGHBP. Nature of the assay: Species specificity of binding by ELISA and BIAcore, rGHBP. As to conditions: in words. The procedure:
(§1) Wells were coated with either recombinant rGHBP or ‘hu’ GHBP (100 ng/well). Additions of H5 (SEQ ID NO:8) and H10 (SEQ ID NOS:9, 80, and 81) phage (10^10/well) and detection were made as described. […] Streptavidin chips were coated with H5 (SEQ ID NO:8) to 1100 RU as described and rGHBP or ‘hu’ GHBP (500 μg/ml) injected as 30 μl samples.
(§2) Growth hormone receptors from different species bind human GH as well as their own GH, however human GHR only binds human or monkey GH. […] The sequence of rGHBP was altered by PCR to create a “humanized” version (‘hu’ GHBP; FIG. 9A). Partially purified ‘hu’GHBP (FIG. 9B) was tested for binding using ELISA and BIAcore analysis. […] This was confirmed by BIAcore analysis (FIG. 10B).
(§3) The biotinylated control peptide (SEQ ID NO:10) was immobilized onto one flow cell of a SA-5 (streptavidin coated) sensor chip to a final density of 700 RU. On a second flow cell, either hGH (1100 RU final density), H5WT peptide (SEQ ID NO:8; 1100 RU final density), or bGH (730 RU final density) was immobilized. GHBP (either rat or humanized) was injected at a concentration of 500 μg/ml with a flow rate of 5 μl/min. Background binding to the control surface was subtracted prior to further analysis.

The target of the next assay is T2, ‘hu’ GHBP (Rattus norvegicus, UniProt P16310, L61R).
T2 construct: 1–48 of GHBP; The 3′ oligo used for this reaction encoded the mutation L43R (CTG→AGA); The second PCR reaction amplified the DNA encoding amino acids 38–260; 6xHis; made in house
T2 sequence (P16310 19-278 isoform P16310-2 L61R): T1 sequence (P16310 19-278 isoform P16310-2) with L43R
Nature of the assay: Species specificity of binding by ELISA and BIAcore, 'hu' GHBP. The settings on record: in words. The procedure:
as §1, §2, §3
A general note: In an ELISA, binding on a coated surface is turned into a signal by an enzyme label.

On to `CC(C)C[C@@H]1NC(=O)[C@H](CO)NC(=O)[C@H](CCC(N)=O)NC(=O)[C@@H](NC(=O)[C@H](CC(C)C)NC(=O)[C@H](CC(=O)O)NC(=O)[C@H](CCCCN)NC(=O)[C@H](Cc2ccc(O)cc2)NC(=O)[C@@H](N)CC(=O)O)CSSC[C@@H](C(=O)N[C@@H](C)C(=O)N[C@@H](CCCCN)C(=O)N[C@@H](CCCCN)C(=O)O)NC(=O)[C@H](Cc2c[nH]c3ccccc23)NC(=O)CNC(=O)[C@H](C)NC(=O)[C@H](CC(C)C)NC(=O)[C@H](Cc2c[nH]c3ccccc23)NC(=O)CNC(=O)[C@@H]2CCCN2C(=O)[C@H](Cc2ccc(O)cc2)NC(=O)[C@H]([C@@H](C)O)NC(=O)[C@H](C(C)C)NC(=O)CNC1=O` [H5] (H-DYKDLCQSLGVTYPGWLAGWCAKK-OH; disulfide 6-21; N-terminus and C-terminus assumed), for which the saturation of receptors result at rGHBP [1] is “could not be saturated”. Further, on rGHBP [2], the “binding to rGHBP” value is given as “bound to rGHBP”. Besides, on ‘hu’ GHBP, the “binding to ‘hu’ GHBP” value was “not ‘hu’GHBP”.
